The source of these data is patent US20190276481A1, “Liver Prodrugs of Mitochondrial Proton Ionophores” (NEUROVIVE PHARMACEUTICAL AB, priority 2016, published 2019).

The structures appear in SMILES notation.

Data set [1] has as its system isolated rat liver mitochondria. As to the kind of experiment: Uncoupling potential in isolated mitochondria (free mitochondrial uncoupling, oxygraph respiration). Type of data set: biochemical. Particulars: fixed concentrations, vs DMSO control, FIGS. 1, 2, 4-6. On the procedure:
The potency of mitochondrial uncoupling without prodrug metabolism may be tested as follows:
Isolated rat liver mitochondria are prepared according to Hansson et al (Hansson et al (Brain Res. 2003 Jan. 17; 960(1-2):99-111.). Respiration is measured at a constant temperature of 37° C. in a high-resolution oxygraph (Oxygraph-2k Oroboros Instruments, Innsbruck, Austria) in 2 ml glass chambers with stirrer speed 750 rpm. Data is recorded with DatLab software (Oroboros Instruments, Innsbruck, Austria) with sampling rate set to 2 s at an oxygen concentration in the range of 210-50 μM O2. If necessary, reoxygenation is performed by partially raising the chamber stopper for a brief air equilibration. Instrumental background oxygen flux is measured in a separate set of experiments and automatically corrected for in the ensuing experiments according to the manufacturer's instructions. To measure respiration of isolated mitochondria, samples are suspended in a mitochondrial respiration medium (MiR05) containing sucrose 110 mM, HEPES 20 mM, taurine 20 mM, K-lactobionate 60 mM, MgCl2 3 mM, KH2PO4 10 mM, EGTA 0.5 mM, BSA 1 g/l, pH 7.1. After reaching stabilized respiration in the presence of substrates (malate (5 mM), glutamate (5 mM), pyruvate (5 mM) and succinate (10 mM)), state 3 respiration is induced by supplementation with ADP (1 mM) followed by addition of oligomycin (1 μg/ml, ATP-synthase inhibitor) causing state 4O. State 4O is a respiratory state dependent on the back-flux of protons across the mitochondrial membrane due to inhibition of the ATP-synthase and in the presence of saturating substrate concentrations and ADP. Drug candidates and their respective payloads of known protonophores are given at fixed concentrations to induce uncoupled respiration. Rotenone (2 μM, complex I [CI] inhibitor), antimycin-A (1 μg/ml, complex III [CIII] inhibitor) and sodium azide (10 mM) are then added to inhibit the ETS providing the residual, non-mitochondrial oxygen consumption which all respiratory values are corrected for.

In data set [2] the test system is HepG2 cells (hepatic) vs platelets (extra-hepatic). In words: In vitro uncoupling in HepG2 cells (hepatic) vs platelets (extra-hepatic). Type of data set: cell-based. The note with it: high maximal uncoupling at low concentrations in HepG2 cells; FIGS. 7-12. As to the method: (§1) For respiration measurements in HepG2 cells and platelets, cells are suspended in a mitochondrial respiration medium MiR05 at 37° C. in a high-resolution oxygraph (Oxygraph-2k Oroboros Instruments, Innsbruck, Austria). […] To evaluate the contribution of respiration independent of ADP phosphorylation, oligomycin (1 μg/ml, ATP-synthase inhibitor) is sequentially added inducing LEAK respiration state (a respiratory state where oxygen consumption is dependent on the back-flux of protons across the mitochondrial membrane). Drug candidates and known protonophores are carefully titrated to induce maximal uncoupled respiration/maximal rate of the ETS (electron transport system) at endogenous substrate supply and continued until a decrease or at least no further increase of uncoupled respiration is observed. Rotenone (2 μM, complex I [CI] inhibitor) and antimycin-A (1 μg/ml, complex III [CIII] inhibitor) are then added to inhibit the ETS, thus providing the residual, non-mitochondrial oxygen consumption, which all values were corrected for.
(§2) The potency of mitochondrial uncoupling with prodrug metabolism be tested as follows: • a) HepG2 cells (to simulate uncoupling with liver cell metabolism) • b) Platelets (to simulate uncoupling in blood)
It is advantageous to have an increased level of uncoupling in hepatic tissue as compared to extra-hepatic tissue. To test for this, compounds were tested in an in vitro uncoupling assay (see Assays for evaluating mitochondrial uncoupling in intact liver cells and platelets in general methods) in HepG2 cells (hepatic) vs platelets (extra-hepatic).

Data set [3] is described as follows: Relative liver exposure vs extra-hepatic organs: salicylanilide levels after oral dosing. Type of data set: in vivo. The note with it: CD-1 mice. As to the method:
For example, mice or rats are dosed with 1 or 3 mg/kg of the compound of the invention i.v. or 1, 5 or 10 mg/kg of the compound of the invention p.o. Blood samples are taken at 5 min, 15 min, 1 h, 4 h and 24 h intervals, and the concentration of the compound of the invention in the sample is determined via LCMS-MS. The time-course of plasma or whole blood concentrations can then be used to derive key parameters such as the area under the plasma or blood concentration-time curve (AUC—which is directly proportional to the total amount of unchanged drug that reaches the systemic circulation), the maximum (peak) plasma or blood drug concentration, the time at which maximum plasma or blood drug concentration occurs (peak time), additional factors which are used in the accurate determination of bioavailability include: the compound's terminal half-life, total body clearance, steady-state volume of distribution and F %.
As it is advantageous to have an increased ratio of liver uncoupling versus extra hepatic uncoupling, 3 mg/kg salicylanilide or 10 mg/kg compound 14 or 10 mg/kg compound 23 (which releases salicylanilide) were dosed orally to CD-1 mice and levels of salicylanilide were measured in blood, muscle and liver samples before and after dosing (see general methods). The ratio of liver vs extra-hepatic salicylanilide was then assessed, with a high ratio desirable, as this is anticipated to lead to reduced off-target uncoupling and toxicity.

For data set [4] the following is noted: Hsaio et al., 2005; cited from earlier work.
A short description of data set [5]: Caco-2 permeability assay. Type of data set: in vitro ADME. The note with it: human. On the procedure: (§3) The permeability coefficient (Papp) is calculated from the following equation:
(§4) Where dQ/dt is the amount of compound in basal (A-B) or apical (B-A) compartment as a function of time (nmol/s). C0 is the initial concentration in the donor (apical or basal) compartment (Mean of T=0) (nmol/mL) and A is the area of the transwell (cm^2).
(§5) The efflux ratio is then calculated as: […]
(§6) Cell permeability may be tested as follows: The test compound is dissolved to 10 mM in DMSO and then diluted further in buffer to produce a final 10 μM dosing concentration. The fluorescence marker lucifer yellow is also included to monitor membrane integrity. Test compound is then applied to the apical (A) surface of Caco-2 cell monolayers and compound permeation into the basolateral (B) compartment is measured. This is performed in the reverse direction (basolateral to apical) to investigate active transport (efflux). LC-MS/MS is used to quantify levels of both the test and standard control compounds (such as Propanolol and Acebutolol).

The test system of a further data set is HepG2 cells. In words: Mitochondrial uncoupling assay in intact HepG2 liver cells. Type of data set: cell-based. Particulars: FIG. 3. As to the method: as §1, §2
Another data set relates to Caco-2 cell monolayers. In words: Caco-2 permeability assay. Type of data set: in vitro ADME. As to the method: as §3, §4, §5, §6

Turning to `COP(=O)(N[C@@H](C)C(=O)OC(C)C)OCOc1ccc([N+](=O)[O-])cc1[N+](=O)[O-]` (stereo partly shown) [Compound 1], the “uncoupling in isolated mitochondria (without prodrug metabolism)” value (“uncoupling … (without prodrug metabolism)” for short) in data set [1] is “reduced, little or no uncoupling”.
For the compound `CC(C)OC(=O)[C@H](C)NP(=O)(N[C@@H](C)C(=O)OC(C)C)OCOc1ccc([N+](=O)[O-])cc1[N+](=O)[O-]` [Compound 2], the “uncoupling … (without prodrug metabolism)” value in data set [1] is recorded as “reduced, little or no uncoupling”.
On the same count and under the same terms, under `CC(C)OC(=O)[C@H](C)NP(=O)(N[C@@H](C)C(=O)OC(C)C)OCOc1ccc([N+](=O)[O-])cc1` [Compound 4] stands “reduced, little or no uncoupling”.
For the compound `CC(C)OC(=O)[C@H](C)NP(=O)(N[C@@H](C)C(=O)OC(C)C)OCOc1ccc(Cl)cc1C(=O)Nc1ccc([N+](=O)[O-])cc1Cl` [Compound 6], in data set [1], the “uncoupling … (without prodrug metabolism)” value was “reduced, little or no uncoupling”. For the same compound, the “selectivity of uncoupling, HepG2 cells vs platelets” value (“selectivity of uncoupling” below) in data set [2] is “selective uncoupling in HepG2 cells as compared to platelets”.
In the case of `C[C@H](NP(=O)(N[C@@H](C)C(=O)OCC(C)(C)C)OCOc1ccc([N+](=O)[O-])cc1)C(=O)OCC(C)(C)C` [Compound 9], the “uncoupling … (without prodrug metabolism)” value in data set [1] is “reduced, little or no uncoupling”. The “selectivity of uncoupling” value in data set [2] is recorded as “selective uncoupling in HepG2 cells as compared to platelets”.
In the case of `CC(C)OC(=O)[C@H](Cc1ccccc1)NP(=O)(N[C@@H](Cc1ccccc1)C(=O)OC(C)C)OCOc1ccc([N+](=O)[O-])cc1[N+](=O)[O-]` [Compound 11], in data set [1], the “uncoupling … (without prodrug metabolism)” value is “reduced, little or no uncoupling”. Besides, the “selectivity of uncoupling” value in data set [2] was “selective uncoupling in HepG2 cells as compared to platelets”.
In the case of `CC(C)OC(=O)[C@H](Cc1ccccc1)NP(=O)(N[C@@H](Cc1ccccc1)C(=O)OC(C)C)OCOc1ccccc1C(=O)Nc1ccccc1` [Compound 14], in data set [3], the “ratio of liver to extra-hepatic exposure (in words)” value (“ratio of liver” below) is “desirable ratios of liver to extra-hepatic exposure”. Also, the “Salicylanilide in blood after 1 h” value in data set [3] (3 mg/kg salicylanilide or 10 mg/kg compound 14 or 23) is recorded as “BQL”. For the same compound, in data set [1], the “uncoupling … (without prodrug metabolism)” value is recorded as “reduced, little or no uncoupling”. Besides, the “selectivity of uncoupling” value in data set [2] is reported as “selective uncoupling in HepG2 cells as compared to platelets”.
For the compound `COP(=O)(N[C@@H](C)C(=O)OC(C)C)OCOc1ccc(Cl)cc1C(=O)Nc1ccc([N+](=O)[O-])cc1Cl` (stereo partly shown) [Compound 18], the “uncoupling … (without prodrug metabolism)” value in data set [1] is reported as “reduced, little or no uncoupling”. Besides, the “selectivity of uncoupling” value in data set [2] was “selective uncoupling in HepG2 cells as compared to platelets”.
For the compound `C[C@H](NP(=O)(N[C@@H](C)C(=O)OCC(C)(C)C)OCOc1ccccc1C(=O)Nc1ccccc1)C(=O)OCC(C)(C)C` [Compound 23], in data set [3], the “ratio of liver” value is listed as “desirable ratios of liver to extra-hepatic exposure”. For the same compound, the “uncoupling … (without prodrug metabolism)” value in data set [1] was “reduced, little or no uncoupling”. The “selectivity of uncoupling” value in data set [2] is on record as “selective uncoupling in HepG2 cells as compared to platelets”.
For the compound `O=[N+]([O-])c1ccc(O)c([N+](=O)[O-])c1` [DNP, 2,4 dinitrophenol], the “acute administration that can be lethal” value in data set [4] is listed as 20-50 mg/kg body weight. The “uncoupling … (without prodrug metabolism)” value in data set [1] is recorded as “potent uncoupling”. In data set [5], the efflux ratio (in general, the permeability from basolateral to apical divided by that in the opposite direction, in the common usage) at 10 µM was determined as 1.1. In addition, in data set [5] (apical to basolateral), the Papp A→B – broadly, the apparent permeability from the apical to the basolateral side of a cell layer – at 10 μM was 24 ×10⁻⁶ cm/s. For the same compound, the Papp B→A (usually how fast a substance crosses the layer from the basolateral side) at 10 μM in data set [5] (basolateral to apical) was determined as 27 ×10⁻⁶ cm/s.
Consider `O=C(Nc1ccccc1)c1ccccc1O` [Salicylanilide, 2-Hydroxy-N-phenylbenzamide], for which, in the data set with HepG2 cells, the “maximal uncoupling effect compared to DNP” value was “lesser maximal uncoupling effect” and the “uncoupling potency compared to DNP” value was “more potent compared to DNP”. Further, in data set [3], the “ratio of liver” value is reported as “desirable ratios of liver to extra-hepatic exposure”. In addition, in the data set on Caco-2 cell monolayers, the “Caco-2 efflux ratio compared to DNP (in words)” value is “reduced efflux ratio” and the “Caco-2 permeability compared to DNP (in words)” value is listed as “increased permeability”. Moreover, the efflux ratio in data set [5] was 0.8. This compound also yielded a Papp A→B in data set [5] (apical to basolateral) of 39.5 ×10⁻⁶ cm/s. This compound displayed a Papp B→A in data set [5] (basolateral to apical) of 33 ×10⁻⁶ cm/s.
